# Test results taken from patent US20160193240A1, “Ulmoside-A: Useful For Prevention Or Cure Of Metabolic Diseases” (COUNCIL OF SCIENTIFIC & INDUSTRIAL RESEARCH, priority 2013, published 2016).
# Key:
# [1] = test system: wistar rats; assay: Dexamethasone-mediated imbalance in serum Na, K level in rats; type: in vivo, rat; details: Dex + Vehicle, 14 days
# Procedure: Food intake was measured daily and the rats were weighed each week. The rats were fasted overnight (O/N) on day 14th and on day 15th oral glucose tolerance test was performed. Following oral glucose tolerance test (OGTT), rats were kept with food and water ad libitum for one day. On day 16th, rats were fasted again O/N and then euthanized. At autopsy, from 5 animals/group, tissues were collected and snap frozen in liquid nitrogen. Blood was collected from cardiac punctures. Plasma was separated from whole blood by centrifugation at 3000 rpm for 20 min immediately after collection of blood and stored at −80° C. until further analysis. Forelimb (quadriceps) skeletal muscles were processed for RNA and protein extraction, followed by quantitative real-time PCR (QRT-PCR) analysis. Two animals from each group were used for photography post autopsy.
# [2] = test system: wistar rats; assay: Dexamethasone-induced skeletal muscle atrophy in rats (limb appearance, QRT-PCR of PGC-1α and atrogenes); type: in vivo, rat; details: Dex alone
# Procedure: Following 15 d indicated treatment of rats, the skeletal muscle (pulled hind limb) were collected and RNA was extracted from them and QRT-PCR was performed in a Roche lightcycler 480 machine. Data represents mean+/−SEM from six animals done in triplicates. “a” statistical analysis between Vehicle and Dexamethasone-treated groups, “b”, statistical analysis between dex-treated and dex+ ULMA groups. P<0.05, as determined by student's t-test, n=6.
# (§1) Blood was collected from cardiac punctures.
# RNA was isolated from skeletal muscles using Trizol (according to manufacturers' protocol) and reverse transcribed as described above and either PGC-1α expression or muscle atrophy related genes (atrogenes) expression were examined.
# [3] = test system: wistar rats; assay: Dexamethasone induced loss of body weight and death in rats; details: Dex alone (200 μg/kg IP), 2 weeks
# Procedure: All animal experiments were conducted in accordance with current legislation on animal experiments [Institutional Animal Ethical Committee (IAEC)] at C.D.R.I. In all animal experiments, rats were individually housed at 21° C., in 12-h light:12-h dark cycles. All animals had access to normal chow diet and water ad libitum.
# (§2) Food intake was measured daily and the rats were weighed each week. The rats were fasted overnight (O/N) on day 14th and on day 15th oral glucose tolerance test was performed. Following oral glucose tolerance test (OGTT), rats were kept with food and water ad libitum for one day. On day 16th, rats were fasted again O/N and then euthanized. At autopsy, from 5 animals/group, tissues were collected and snap frozen in liquid nitrogen. Blood was collected from cardiac punctures. Plasma was separated from whole blood by centrifugation at 3000 rpm for 20 min immediately after collection of blood and stored at −80° C. until further analysis. […] (quadriceps) skeletal muscles were processed for RNA and protein extraction, followed by quantitative real-time PCR (QRT-PCR) analysis. Two animals from each group were used for photography post autopsy.
# [4] = test system: wistar rats; assay: Dexamethasone-mediated reduction in serum osteocalcin in rats (ELISA); type: in vivo, rat; details: Dex alone, 14 days
# Procedure: as §2
# [5] = test system: wistar rats; assay: Dexamethasone-mediated reduction of food intake in rats; type: in vivo, rat; details: Dex alone 200 μg/kg IP
# Procedure: Six to eight week old wistar rats (n=6 per group) were housed separately and treated as indicated in the example. Daily food intake was measured and plotted. […] Data represents mean+/−SEM.
# as §1
# Food intake was measured every alternate day by giving measured food to each cage in evening (5.00 PM) and collection of residual food in next morning (9.00 AM) and measuring it. The residual food was subtracted from the food given and plotted.
# [6] = test system: GAL-PPARα; assay: PPARα activation assay (GAL-PPARα / GAL4-Luc reporter) in HEK293 cells expressing endogenous AdipoR1; type: cell-based, human; details: 100 pM GW-7647 alone, 6 hours, HEK293
# Procedure: A. ULMA enhances PPARα ligand activity; HEK293 cells were seeded on to 24 well plates and after 24 h, transfected with 100 ng of GAL-PPARα and 100 ng GAL4-Luc along with 100 ng eGFPC1 (Clontech) plasmids using lipofectamine LTX (Invitrogen) according to manufacturer's instructions. 24 h after transfection, cells were treated with or without 100 pM GW-7647 alone or in combination with 100 nM ULMA or 1 μg/ml globular adiponectin (gAd) for 6 h. Following which, the cells were lysed and GFP fluorescence and firefly luciferase activities were measured. Luciferase activity was normalized with GFP fluorescence and plotted as fold activity over vehicle (0.1% DMSO) treated control. Data shown in mean±SEM of three independent experiments performed in duplicates. *p<0.05 as determined by two tailed unpaired student's t-test.
# The potential of ULMA to activate adiponectin receptor signaling was evaluated using a PPARα activation assay. […] 24 hours following plating, these cells were transfected with 100 ng of GAL-PPARα (PPARα cDNA fused with GAL4 DNA binding domain) and 100 ng GAL4 upstream activation sequence driven luciferase (GAL4-Luc) reporter gene that is capable of binding to any protein fused to GAL4-DNA binding domain (in this case GAL-PPARα) and 100 ng Green fluorescence expressing plasmid (GFP) that was used as an internal control, using lipofectamine LTX transfection reagent (Invitrogen) according to manufacturers' instructions. […] The cells were then lysed and luciferase activity was measured in a Promega GloMax luminometer using steady Glo luciferase assay kit (Promega) according to manufacturers' instructions; and GFP fluorescence was measured in a fluorimeter (Polarstar Galaxy, BMG Labtech). […]
SMILES,K [1],appearance of denuded forelimb and hindlimb [2],"mRNA levels of atrogenes (Atrogin-1/MAFbx, MuRF1, Cathepsin L, Glul) in skeletal muscle [2]",Survival/group (%) [3],Osteocalcin [4],food intake [5],increase of luciferase activity over vehicle-treated controls [6]
"C[C@@H]1C[C@H]2[C@@H]3CCC4=CC(=O)C=C[C@]4(C)[C@@]3(F)[C@@H](O)C[C@]2(C)[C@@]1(O)C(=O)CO [Dex, Dexamethasone, reference compound]",3.47 ± 0.13 mM,severe abnormality in the limbs,robustly induced,46.7%,263.5 ± 6.4 ng/mL,robust loss in food-intake,
"CC(C)(Sc1ccc(CCN(CCCCC2CCCCC2)C(=O)NC2CCCCC2)cc1)C(=O)O [GW-7647, reference compound]",,,,,,,2 folds
